Source: patent US10087191B2, “Piperidine derivative and preparation method and pharmaceutical use thereof” (Jiangsu Hengrui Medicine Co., Ltd., priority 2015, dated 2018)

Tests used:
MCF7 cells = assay: Inhibition of the proliferation of MCF7 cells (Cell Titer-Glo); format: cell-based; conditions: Homo sapiens, MCF-7 cells, 72 hours, read-out: IC50 value of inhibition effect on the proliferation of MCF7 cells
Method: The object of this experiment was to determine the inhibition effect of the compounds on the proliferation activity of MCF7 cells, and the in vitro activity of the compounds was evaluated according to the IC50 value.
After incubation for 24 hours, the medium was removed, then 90 μl of the medium containing 2% FBS and 10 μl of the drug were added to each well, 10 μl of DMSO were added to the control group, and the blank group contained only 100 μl medium containing 2% FBS. The plate was gently shaken and incubated in a incubator at 37° C., 5% CO2. After 72 hours, 50 μl of mixed Cell Titer-Glo (Promega, Cat. No. G7571) were added to each well. The plate was shaken until the ingredients were well mixed, and placed at room temperature for 10 minutes, then the chemiluminescence signal value was determined.
The values of the chemiluminescence signals vs the logarithmic concentrations of the compounds were plotted using Graghpad Prism to obtain IC50 values.

[1] = Pharmacokinetics assay in BALB/C nude mice after intragastrical administration; format: in vivo; conditions: female, mouse, plasma, po, 3 mg/kg; for AUC: read-out: Area Under Curve AUC; for CL/F: read-out: Clearance CL/F (converted); for half-life: read-out: Half-Life t½ (converted); for MRT: read-out: Mean Residence Time MRT; for Cmax: read-out: Plasma Conc. Cmax
Method: BALB/C nude mice were used as test animals. The drug concentration in plasma at different time points was determined by LC/MS/MS after intragastrical administration of the compounds of Examples 10, 14, 20, 21, 57, 68, 71, 73, 74, 76 and 89 to BALB/C nude mice. The pharmacokinetic behavior of the compounds of the present invention was studied and evaluated in BALB/C nude mice.
Ninety-nine (99) female BALB/C nude mice were equally divided into 11 groups, which were purchased from SINO-BRITSH SIPPR/BK LAB. ANIMAL LTD., CO, with Certificate No.: SCXK (Shanghai) 2008-0016.
The appropriate amount of each test compound was weighed, and successively added with 9% PEG400+0.5% tween 80+0.5% PVP+90% aqueous solution of 0.5% CMC.
After an overnight fast, 99 female BALB/C nude mice were equally divided into 11 groups, and administered the test compounds intragastrically at an administration volume of 0.2 mL/10 g.
Blood (0.1 mL) was sampled (3 mice at each time point) at 0.5, 1.0, 2.0, 4.0, 6.0, 8.0, 11.0 and 24.0 hours after administration. The samples were stored in heparinized test tubes, and centrifuged for 10 minutes at 3,500 rpm to separate the blood plasma. The plasma samples were stored at −20° C. The plasma concentration of the test compounds in BALB/C nude mice after intragastrical administration was determined by LC/MS/MS.
Pharmacokinetic parameters of the compounds of Examples 10, 14, 20, 21, 57, 68, 71, 73, 74, 76 and 89 of the present invention are shown below.

Structure (SMILES) | IC50 (MCF7 cells) [nM] | also measured
CC1Cc2cc(O)ccc2C(c2c(F)cc(/C=C/C(=O)O)cc2F)N1CC(C)(C)F [Example 3, (E)-3-(3,5-difluoro-4-((1S,3R/1R,3S)-2-(2-fluoro-2-methylpropyl)-6-hydroxy-3-methyl-1,2,3,4-tetrahydroisoquinolin-1-yl)phenyl)acrylic acid] | 2.12 | 
Cc1ncc(-c2ccc3c(c2)CC(C)N(CC(C)(C)F)C3c2c(F)cc(/C=C/C(=O)O)cc2F)s1 [Example 10, (E)-3-(3,5-difluoro-4-((1S,3R/1R,3S)-2-(2-fluoro-2-methylpropyl)-3-methyl-6-(2-methylthiazol-5-yl)-1,2,3,4-tetrahydroisoquinolin-1-yl)phenyl)acrylic acid] | 0.49 | AUC [1]: 15400 ng·h/mL; CL/F [1]: 54 mL/min/kg; half-life [1]: 4.11 h; MRT [1]: 5.72 h; Cmax [1]: 2600 ng/mL
Cc1ncc(-c2ccc3c(c2)C[C@@H](C)N(CC(C)(C)F)[C@@H]3c2c(F)cc(/C=C/C(=O)O)cc2F)s1 [Example 11, (E)-3-(3,5-difluoro-4-((1S,3R)-2-(2-fluoro-2-methylpropyl)-3-methyl-6-(2-methylthiazol-5-yl)-1,2,3,4-tetrahydroisoquinolin-1-yl)phenyl)acrylic acid] | 0.08 | 
CCn1cc(-c2ccc3c(c2)CC(C)N(CC(C)(C)F)C3c2c(F)cc(/C=C/C(=O)O)cc2F)cn1 [Example 20, (E)-3-(4-((1S,3R/1R,3S)-6-(1-ethyl-1H-pyrazol-4-yl)-2-(2-fluoro-2-methylpropyl)-3-methyl-1,2,3,4-tetrahydroisoquinolin-1-yl)-3,5-difluorophenyl)acrylic acid] | 0.03 | AUC [1]: 13000 ng·h/mL; CL/F [1]: 63.8 mL/min/kg; half-life [1]: 3.27 h; MRT [1]: 4.07 h; Cmax [1]: 3290 ng/mL
CCn1cc(-c2ccc3c(c2)C[C@@H](C)N(CC(C)(C)F)[C@@H]3c2c(F)cc(/C=C/C(=O)O)cc2F)cn1 [Example 21, (E)-3-(4-((1S,3R)-6-(1-ethyl-1H-pyrazol-4-yl)-2-(2-fluoro-2-methylpropyl)-3-methyl-1,2,3,4-tetrahydroisoquinolin-1-yl)-3,5-difluorophenyl)acrylic acid] | 0.11 | AUC [1]: 10100 ng·h/mL; CL/F [1]: 82.7 mL/min/kg; half-life [1]: 2.52 h; MRT [1]: 2.71 h; Cmax [1]: 4300 ng/mL
CCn1cc(-c2ccc3c(c2)C[C@H](C)N(CC(C)(C)F)[C@H]3c2c(F)cc(/C=C/C(=O)O)cc2F)cn1 [Example 22, (E)-3-(4-((1R,3S)-6-(1-ethyl-1H-pyrazol-4-yl)-2-(2-fluoro-2-methylpropyl)-3-methyl-1,2,3,4-tetrahydroisoquinolin-1-yl)-3,5-difluorophenyl)acrylic acid] | 17.4 | 
C[C@@H]1Cc2cc(-c3cn[nH]c3)ccc2[C@@H](c2c(F)cc(/C=C/C(=O)O)cc2F)N1CC(C)(C)F [Example 25, (E)-3-(3,5-difluoro-4-((1S,3R)-2-(2-fluoro-2-methylpropyl)-3-methyl-6-(1H-pyrazol-4-yl)-1,2,3,4-tetrahydroisoquinolin-1-yl)phenyl)acrylic acid] | 0.22 | 
CC1Cc2cc(-c3cccnc3)ccc2C(c2c(F)cc(/C=C/C(=O)O)cc2F)N1CC(C)(C)F [Example 28, (E)-3-(3,5-difluoro-4-((1S,3R/1R,3S)-2-(2-fluoro-2-methylpropyl)-3-methyl-6-(pyridin-3-yl)-1,2,3,4-tetrahydroisoquinolin-1-yl)phenyl)acrylic acid] | 3.71 | 
CC(C)CN1C(C)Cc2c(ccc3[nH]ncc23)C1c1c(F)cc(/C=C/C(=O)O)cc1F [Example 92, (E)-3-(3,5-difluoro-4-((6S,8R/6R,8S)-7-isobutyl-8-methyl-6,7,8,9-tetrahydro-3H-pyrazolo[4,3-f]isoquinolin-6-yl)phenyl)acrylic acid] | 0.99 | 

The next lines start with results.

IC50 (MCF7 cells) [nM] | Structure (SMILES) | also measured
4.82 | CNC(=O)Nc1ccc2c(c1)CC(C)N(CC(C)(C)F)C2c1c(F)cc(/C=C/C(=O)O)cc1F [Example 29, (E)-3-(3,5-difluoro-4-((1S,3R/1R,3S)-2-(2-fluoro-2-methylpropyl)-3-methyl-6-(3-methylureido)-1,2,3,4-tetrahydroisoquinolin-1-yl)phenyl)acrylic acid] | 
1.59 | CC1Cc2cc(NC(=O)N(C)C)ccc2C(c2c(F)cc(/C=C/C(=O)O)cc2F)N1CC(C)(C)F [Example 44, (E)-3-(4-((1S,3R/1R,3S)-6-(3,3-dimethylureido)-2-(2-fluoro-2-methylpropyl)-3-methyl-1,2,3,4-tetrahydroisoquinolin-1-yl)-3,5-difluorophenyl)acrylic acid] | 
3.66 | CCc1nc(-c2ccc3c(c2)CC(C)N(CC(C)(C)F)C3c2c(F)cc(/C=C/C(=O)O)cc2F)no1 [Example 46, (E)-3-(4-((1S,3R/1R,3S)-6-(5-ethyl-1,2,4-oxadiazol-3-yl)-2-(2-fluoro-2-methylpropyl)-3-methyl-1,2,3,4-tetrahydroisoquinolin-1-yl)-3,5-difluorophenyl)acrylic acid] | 
3.07 | CC1Cc2cc(-c3nnn(C)n3)ccc2C(c2c(F)cc(/C=C/C(=O)O)cc2F)N1CC(C)(C)F [Example 51, (E)-3-(3,5-difluoro-4-((1S,3R/1R,3S)-2-(2-fluoro-2-methylpropyl)-3-methyl-6-(2-methyl-2H-tetrazol-5-yl)-1,2,3,4-tetrahydroisoquinolin-1-yl)phenyl)acrylic acid] | 
15 | Cc1noc(-c2ccc3c(c2)CC(C)N(CC(C)(C)F)C3c2c(F)cc(/C=C/C(=O)O)cc2F)n1 [Example 53, (E)-3-(3,5-difluoro-4-((1S,3R/1R,3S)-2-(2-fluoro-2-methylpropyl)-3-methyl-6-(3-methyl-1,2,4-oxadiazol-5-yl)-1,2,3,4-tetrahydroisoquinolin-1-yl)phenyl)acrylic acid] | 
0.01 | C[C@H]1Cc2cc(-c3cnn(C)c3)ccc2[C@H](c2c(F)cc(/C=C/C(=O)O)cc2F)N1CC(C)(C)F [Example 56, (E)-3-(3,5-difluoro-4-((1R,3S)-2-(2-fluoro-2-methylpropyl)-3-methyl-6-(1-methyl-1H-pyrazol-4-yl)-1,2,3,4-tetrahydroisoquinolin-1-yl)phenyl)acrylic acid] | 
3.58 | CC1Cc2cc(-c3ccc(-c4cnn(C)c4)nc3)ccc2C(c2c(F)cc(/C=C/C(=O)O)cc2F)N1CC(C)(C)F [Example 61, (E)-3-(3,5-difluoro-4-((1S,3R/1R,3S)-2-(2-fluoro-2-methylpropyl)-3-methyl-6-(6-(1-methyl-1H-pyrazol-4-yl)pyridin-3-yl)-1,2,3,4-tetrahydroisoquinolin-1-yl)phenyl)acrylic acid] | 
4.21 | CC1Cc2c(oc3c(F)cccc23)C(c2c(F)cc(/C=C/C(=O)O)cc2F)N1CC(C)(C)F [Example 84, (E)-3-(3,5-difluoro-4-((1R,3R/1S,3S)-8-fluoro-2-(2-fluoro-2-methylpropyl)-3-methyl-1,2,3,4-tetrahydrobenzofuro[2,3-c]pyridin-1-yl)phenyl)acrylic acid] | 
9.27 | CC1Cc2c(oc3ccc(Br)cc23)C(c2c(F)cc(/C=C/C(=O)O)cc2F)N1CC(C)(C)F [Example 87, (E)-3-(4-((1R,3R/1S,3S)-6-bromo-2-(2-fluoro-2-methylpropyl)-3-methyl-1,2,3,4-tetrahydrobenzofuro[2,3-c]pyridin-1-yl)-3,5-difluorophenyl)acrylic acid] | 
0.21 | CC1Cc2c(oc3ccc(-c4cccnc4)cc23)C(c2c(F)cc(/C=C/C(=O)O)cc2F)N1CC(C)(C)F [Example 90, (E)-3-(3,5-difluoro-4-((1R,3R/1S,3S)-2-(2-fluoro-2-methylpropyl)-3-methyl-6-(pyridin-3-yl)-1,2,3,4-tetrahydrobenzofuro[2,3-c]pyridin-1-yl)phenyl)acrylic acid] | 
